Type in all cases: in vivo
One assay concerns radiation-induced emesis. The experiment in a line: Radiation-induced (X-irradiation) emesis in the conscious ferret. The following applies: for anti-emetic effect with DPCPX, animals affected (in words): two animals; for effect on radiation-induced emesis (in words): s.c. immediately after X-irradiation, conscious ferret. From the text: The effects of a number of A1 agonists (including N-(3-fluoro4-hydroxy-phenyl)-5′-O-methyl-adenosine and N-(4-hydroxy-phenyl)-5′-O-methyl-adenosine) and an antagonist, 1,3-dipropyl-8-cyclopentylxanthine (DPCPX), were investigated for anti-emetic action against radiaton-induced emesis in the conscious ferret. In addition DPCPX was used in an attempt to block the anti- emetic effects of the partial agonist, N-(3-fluoro-4hydroxy-phenyl)-5′-O-methyl-adenosine, the structure of which is indicated below. [drawing 4]
For all the experiments. adult male ferrets, body weight range 1-1.5 kg, were used. Emesis was induced by X-irradiation, morphine and cisplatin.
The ferrets were weighed on the day before the experiment. On the day of the experiment each ferret received 2Gy (200 Rad) whole body X-irradiation, administered over a 5 minute period. The A1 receptor agonists, partial agonists or antagonist were administered via the subcutaneous route immediatelv after X-irradiation (i.e. approximately 25 minutes before the onset of emesis). When investigating the effects of the A1 receptor antagonist, DPCPX, on the partial agonist N-(3-fluoro4-hydroxy-phenyl)-5′-O-methyl-adenosine, either both compounds were administered simultaneously immediately after X-irradiation, or the DPCPX was given as a 15 minute pre-treatment.

In another assay the test system is cisplatin-induced emesis. As to the kind of experiment: Cisplatin-induced emesis in the conscious ferret. The following applies: cisplatin 200 mg m-2 i.p., 1 mg kg-1 s.c. after first emetic episode, n=2. As for the experimental part:
For all the experiments. adult male ferrets, body weight range 1-1.5 kg, were used. Emesis was induced by X-irradiation, morphine and cisplatin. The ferrets were weighted and measured for the calculation of body surface area on the day before the experiment. On the day of the experiment each ferret received an intraperitoneal dose of cisplatin (200 mg m^−2).

A further assay deals with morphine-induced emesis. The experiment in a line: Morphine-induced emesis in the conscious ferret. The following applies: morphine 0.5 mg kg-1 s.c., 1 mg kg-1 s.c. 15 minutes before morphine, n=2.

As for `COC[C@H]1O[C@@H](n2cnc3c(Nc4ccc(O)c(F)c4)ncnc32)[C@H](O)[C@@H]1O` [N-(3-fluoro-4-hydroxyphenyl)-5′-O-methyl-adenosine], the “% inhibition of retching” value in the assay on radiation-induced emesis (2Gy whole body X-irradiation, 1.0 mg kg-1 s.c. immediately after irradiation, observed 2 hours, n=2) was determined as 100%; in the assay with cisplatin-induced emesis (1h) it was 100%; with cisplatin-induced emesis (2h), 67%; in the assay with cisplatin-induced emesis (7h), 43%; in the assay on morphine-induced emesis (1h), 100%; in the assay on morphine-induced emesis (2h) it was 100%. In addition, the “anti-emetic effect with DPCPX, animals affected (in words)” value is “anti-emetic effect in both animals was reduced” with radiation-induced emesis (DPCPX 3 mg kg-1 s.c., 15 minute pre-treatment) and “anti-emetic effect in only one of the two animals tested was reduced” with radiation-induced emesis (DPCPX 1 mgkg-1 s.c. administered simultaneously). Moreover, the “reversal of the anti-emetic effect by the A1 receptor antagonist DPCPX (in words)” value with radiation-induced emesis (X-irradiation, addition of DPCPX) is on record as “partially reversed”. Moreover, the “effect on radiation-induced emesis (in words)” value in the assay on radiation-induced emesis is given as “completely inhibited emesis”.
`COC[C@H]1O[C@@H](n2cnc3c(Nc4ccc(O)cc4)ncnc32)[C@H](O)[C@@H]1O` [N-(4-hydroxyphenyl)-5′-O-methyl-adenosine]: the “effect on radiation-induced emesis (in words)” value in the assay on radiation-induced emesis is “completely inhibited emesis”.
